Reference: patent publication US11066369B2, “N-(pyridin-2-yl)pyridine-sulfonamide derivatives and their use in the treatment of disease” (Novartis AG, priority 2016, dated 2021)

How the values were obtained:
[1] = molecular target: T1, horseradish peroxidase (HRP) tagged delF508-CFTR (Homo sapiens, UniProt P13569, DEL508-508); experiment: Measurement of delF508-CFTR-HRP surface expression in CFBE41o- cells; assay type: cell-based; conditions: delF508-CFTR-HRP surface expression, CFBE41o- cells; for Emax: read-out: DelF508-CFTR-HRP Amax %; for EC50: read-out: DelF508-CFTR-HRP EC50;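 on DelF508-CFTR-HRP Amax %: percent efficacy relative to reference corrector lumacaftor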
T1 construct: expressed in transfected cells
T1 sequence (P13569 with tags, fused parts or gaps DEL508-508): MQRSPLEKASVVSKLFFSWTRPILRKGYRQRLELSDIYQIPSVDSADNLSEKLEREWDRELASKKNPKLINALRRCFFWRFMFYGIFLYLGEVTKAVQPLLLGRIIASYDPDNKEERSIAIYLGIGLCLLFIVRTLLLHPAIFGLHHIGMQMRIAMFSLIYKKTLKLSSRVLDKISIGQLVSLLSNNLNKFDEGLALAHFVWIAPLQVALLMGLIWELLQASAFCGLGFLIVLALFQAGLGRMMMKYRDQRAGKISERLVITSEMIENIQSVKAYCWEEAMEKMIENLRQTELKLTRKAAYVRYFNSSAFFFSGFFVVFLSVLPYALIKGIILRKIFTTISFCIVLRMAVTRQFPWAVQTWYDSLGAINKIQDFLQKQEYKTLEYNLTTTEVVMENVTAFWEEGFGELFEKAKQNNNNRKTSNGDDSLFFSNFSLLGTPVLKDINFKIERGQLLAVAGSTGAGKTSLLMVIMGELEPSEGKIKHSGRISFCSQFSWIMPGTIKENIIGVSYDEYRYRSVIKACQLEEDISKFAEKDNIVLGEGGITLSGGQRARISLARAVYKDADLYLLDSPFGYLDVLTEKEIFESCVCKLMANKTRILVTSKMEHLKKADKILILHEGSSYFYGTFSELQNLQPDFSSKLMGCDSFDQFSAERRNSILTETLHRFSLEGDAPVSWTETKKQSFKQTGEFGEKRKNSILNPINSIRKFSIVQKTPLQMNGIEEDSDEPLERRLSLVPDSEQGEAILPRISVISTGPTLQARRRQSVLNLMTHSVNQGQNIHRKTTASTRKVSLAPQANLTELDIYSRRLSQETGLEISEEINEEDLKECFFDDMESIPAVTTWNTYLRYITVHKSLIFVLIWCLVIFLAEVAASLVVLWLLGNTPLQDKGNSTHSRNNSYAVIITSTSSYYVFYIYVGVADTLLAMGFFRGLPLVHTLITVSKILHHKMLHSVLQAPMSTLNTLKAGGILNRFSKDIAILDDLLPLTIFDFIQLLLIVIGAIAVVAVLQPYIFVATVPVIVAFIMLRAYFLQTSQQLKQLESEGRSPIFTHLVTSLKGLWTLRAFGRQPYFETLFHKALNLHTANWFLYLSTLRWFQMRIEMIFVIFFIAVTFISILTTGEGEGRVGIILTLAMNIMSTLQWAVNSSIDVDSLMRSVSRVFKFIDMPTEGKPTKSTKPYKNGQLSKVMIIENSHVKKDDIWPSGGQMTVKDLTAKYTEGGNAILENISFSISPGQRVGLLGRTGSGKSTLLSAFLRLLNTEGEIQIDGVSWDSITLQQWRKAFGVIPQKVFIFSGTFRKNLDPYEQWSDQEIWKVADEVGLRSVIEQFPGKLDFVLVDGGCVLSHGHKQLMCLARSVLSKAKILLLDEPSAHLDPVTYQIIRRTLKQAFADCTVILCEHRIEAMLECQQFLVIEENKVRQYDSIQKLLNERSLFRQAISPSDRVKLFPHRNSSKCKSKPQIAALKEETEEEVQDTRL
In short: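 Surface-trafficked delF508-CFTR detected via extracellular HRP tag, read as luminescence from a membrane-impermeant substrate in CFBE41o- cells. Cells pre-induced 48h with 500 ng/mL doxycycline, then exposed 24h at 37° C to a 10-point, 3-fold dilution series from 10 μM (DMSO ≤0.5%). Triplicate dose-responses fitted logistically for EC50 after per-plate normalization; fold change versus reference compound.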

delF508-CFTR = molecular target: T2, delF508-CFTR (Homo sapiens, UniProt P13569, DEL508-508); experiment: Measurement of delF508-CFTR functional activity in primary human bronchial epithelial cells (HBECs) using Multi-Transepithelial Clamp Circuit (MTECC-24) assay; assay type: cell-based; conditions: primary CF HBECs; for MTECC24 CFHBEC- Amax %: test compound added 24h before assay plus potentiator, relative to reference combination (2 μM corrector + 0.5 μM potentiator); for EC50: test compound added 24h before assay, in the presence of potentiator, mean of at least two replicates, read-out: MTECC24 CFHBEC- EC50
T2 construct: functional activity of the CFTR channel (Chloride ion transport) in patient derived primary human bronchial epithelial cells; host or cells: patient-derived primary human bronchial epithelial cells (delF508-CFTR)
T2 sequence (P13569 with tags, fused parts or gaps DEL508-508): as above
Source text: [formula] Measurement of delF508-CFTR Functional Activity in Primary Human Bronchial Epithelial Cells (HBECs) Using Multi-Transepithelial Clamp Circuit (MTECC-24) Assay
This assay measures the functional activity of the CFTR channel (Chloride ion transport) in patient derived primary human bronchial epithelial cells with forskolin activation and in the presence of the CFTR corrector/potentiator combo.
Primary human delF508-CFTR bronchial epithelial cells were purchased from Asterand and cultured according to previously established methods (Fulcher et al. (2005) Methods Mol Med 107: 183-206). Briefly, vendor supplied cells were rapidly defrosted and added to a T175 flask in 50 mL growth media (Lonza BEBM media with Lonza BEGM singlequots). Media was replaced after 24h and then cells were fed every other day until cells were 80-90% confluent, at which point cells were cryopreserved. These P1 vials were thawed at 37° C. as needed and added to T175 flasks in 50 mL growth media at 5×10^5 cells/flask. Media was replaced after 24h, and then cells were fed every other day until 80-90% confluent. Cells were lifted with 5 mL accutase at 37° C. for 5 minutes, centrifuged at 1000 rpms for 5 min (300 g), and resuspended in differentiation media (50% BEBM in DMEM, BEGM singlequots, all trans retinoic acid (5×10^−8M)). Cells were then counted and cell suspension was added to collagen coated inserts at 3×10^4 cells/insert in 0.15 mL with 0.5 mL differentiation media on the basolateral side.
Apical and basolateral media were replaced on alternate days, and following day 7 (or when confluent plus 2 days), air liquid interface was established for approximately two weeks by removal of apical media. One day prior to use on the MTECC24 system (EP-Devices, EP Design, Belgium), 0.15 mL of warmed (37° C.) PBS was added to the apical surface of the cultures and returned to humidifier (37° C., 5% CO2 incubator) for 30 min before aspirating the apical surface to remove any mucus.
Compound treatments were then prepared. Compound dilutions, typically a 10 point concentration response with 1 in 3 dilution steps, were made in 100% DMSO before dilution 1 in 1000 into differentiation medium with a final DMSO concentration of 0.1% or 0.2% for the study. Compound containing medium was then transferred into the wells of a 24 well plate at 0.5 mL per well and warmed for 30 min in a 37° C. incubator prior to transferring washed inserts into the compound containing plates. Cells were incubated in compound containing medium (basolateral only) for 24h prior to measurement in the MTECC24 system.
Following 24 hr treatment, compound dilutions were prepared again, diluted 1 in 1000 into 37° C. assay medium (F-12 Coon's modified, 20 mM HEPES pH7.4 with TRIS Base, No FCS or bicarbonate). Cells which were treated for 24h with test compound were then transferred into plates containing 0.75 mL compound treatment in assay medium (basolateral) and 0.25 mL of the compound containing assay medium was added to the apical surface. The plates were then transferred to the heated plate compartments of the MTECC24 system for 45 min prior to measurements (this can also be done in a non-CO2 37° C. humidified incubator). Basolateral temperature should not exceed 36.5° C. and apical temperature should be approximately 35.5° C.
Modulators were added sequentially as follows while the MTECC24 instrument recorded the equivalent short circuit current (Ieq):
Prior to dilution into F-12 medium the stocks are as follows:
Amiloride stock is 10 mM in H2O
Forskolin Stock is 10 mM in 100% DMSO
(S)-3-amino-6-methoxy-N-(3,3,3-trifluoro-2-hydroxy-2-methylpropyl)-5-(trifluoromethyl)picolinamide is 0.5 mM stock in 100% DMSO
INH-172 (4-[[4-Oxo-2-thioxo-3-[3-trifluoromethyl)phenyl]-5-thiazolidinylidene]methyl]benzoic acid) stock is 30 mM in 100% DMSO
The data was normalized using the median signal from wells treated with 0.1% DMSO as a baseline. […]

SMILES | Emax [1] | EC50 [1] | MTECC24 CFHBEC- Amax % (delF508-CFTR) | EC50 (delF508-CFTR)
Cc1ccccc1-c1nc(NS(=O)(=O)c2cccc(O[C@@H]3COC[C@]3(C)O)n2)ccc1C(F)(F)F (single isomer, unassigned) [Example 294] | 641% | 2.36 µM | 81.9% | 0.011 µM
Cc1ccccc1-c1nc(NS(=O)(=O)c2cccc(O[C@@H]3COC[C@@]3(C)O)n2)ccc1C(F)(F)F (single isomer, unassigned) [Example 295] | 468% | 2.03 µM | 68.7% | 0.0261 µM
Cc1ccccc1-c1nc(NS(=O)(=O)c2cccc(O[C@@H]3COC[C@@H]3O)n2)ccc1C(F)(F)F (single isomer, unassigned) [Example 296] | 255% | 3.22 µM | 54.3% | 0.03 µM
Cc1ccc(F)cc1-c1nc(NS(=O)(=O)c2cccc(N)n2)ccc1C(F)(F)F [Example 1, 6-amino-N-(6-(5-fluoro-2-methylphenyl)-5-(trifluoromethyl)pyridin-2-yl)pyridine-2-sulfonamide] | 867% | 1.78 µM | 78.9% | 0.004 µM
Cc1cccc(C)c1-c1nc(NS(=O)(=O)c2cccc(N)n2)ccc1C(F)(F)F [Example 2, 6-amino-N-(6-(2,6-dimethylphenyl)-5-(trifluoromethyl)pyridin-2-yl)pyridine-2-sulfonamide] | 724% | 0.967 µM | 75.5% | 0.008 µM
Cc1cccc(C)c1-c1nc(NS(=O)(=O)c2cccc(N)n2)ccc1Br [Example 3, 6-amino-N-(5-bromo-6-(2,6-dimethylphenyl)pyridin-2-yl)pyridine-2-sulfonamide] | 688% | 1.44 µM | 60.3% | 0.0019 µM
Cc1cccc(C)c1-c1nc(NS(=O)(=O)c2ccnc(N)c2)ccc1Cl [Example 4, 2-amino-N-(5-chloro-6-(2,6-dimethylphenyl)pyridin-2-yl)pyridine-4-sulfonamide] | 632% | 0.912 µM | 52.0% | 0.0408 µM
Cc1cccc(C)c1-c1cc(C(F)(F)F)cc(NS(=O)(=O)c2cccc(N)n2)n1 [Example 5, 6-amino-N-(6-(2,6-dimethylphenyl)-4-(trifluoromethyl)pyridin-2-yl)pyridine-2-sulfonamide] | 629% | 1.15 µM | 97.56% | 0.003 µM
Cc1ccc(F)cc1-c1nc(NS(=O)(=O)c2cccc(N)n2)ccc1Cl [Example 6, 6-amino-N-(5-chloro-6-(5-fluoro-2-methylphenyl)pyridin-2-yl)pyridine-2-sulfonamide] | 612% | 1.51 µM | 61.0% | 0.0131 µM
Cc1c(F)cccc1-c1nc(NS(=O)(=O)c2cccc(N)n2)ccc1C(F)(F)F [Example 7, 6-amino-N-(6-(3-fluoro-2-methylphenyl)-5-(trifluoromethyl)pyridin-2-yl)pyridine-2-sulfonamide] | 610% | 1.63 µM | 66.8% | 0.0027 µM
Cc1cccc(C)c1-c1cc(Cl)cc(NS(=O)(=O)c2cccc(N)n2)n1 [Example 10, 6-amino-N-(4-chloro-6-(2,6-dimethylphenyl)pyridin-2-yl)pyridine-2-sulfonamide] | 592% | 1.53 µM | 87.0% | 0.0058 µM
Cc1cccc(C)c1-c1nc(NS(=O)(=O)c2cccc(N)n2)ccc1Cl [Example 11, 6-amino-N-(5-chloro-6-(2,6-dimethylphenyl)pyridin-2-yl)pyridine-2-sulfonamide] | 579% | 1.35 µM | 94.3% | 0.0136 µM
Cc1c(F)cccc1-c1nc(NS(=O)(=O)c2cccc(N)n2)ccc1Cl [Example 12, 6-amino-N-(5-chloro-6-(3-fluoro-2-methylphenyl)pyridin-2-yl)pyridine-2-sulfonamide] | 555% | 1.32 µM | 85.2% | 0.0097 µM
Cc1cccc(Cl)c1-c1nc(NS(=O)(=O)c2cccc(N)n2)ccc1Cl [Example 13, 6-amino-N-(5-chloro-6-(2-chloro-6-methylphenyl)pyridin-2-yl)pyridine-2-sulfonamide] | 536% | 1.31 µM | 100.1% | 0.024 µM
Nc1cccc(S(=O)(=O)Nc2ccc(C(F)(F)F)c(-c3ccccc3Cl)n2)n1 [Example 17, 6-amino-N-(6-(2-chlorophenyl)-5-(trifluoromethyl)pyridin-2-yl)pyridine-2-sulfonamide] | 510% | 2.09 µM | 69.5% | 0.0051 µM
Nc1cccc(S(=O)(=O)Nc2ccc(C(F)(F)F)c(-c3ccccc3C(F)(F)F)n2)n1 [Example 18, 6-amino-N-(5-(trifluoromethyl)-6-(2-(trifluoromethyl)phenyl)pyridin-2-yl)pyridine-2-sulfonamide] | 505% | 1.89 µM | 65.5% | 0.0079 µM
Cc1cccc(C)c1-c1nc(NS(=O)(=O)c2ccnc(N)c2)ccc1C(F)(F)F [Example 25, 2-amino-N-(6-(2,6-dimethylphenyl)-5-(trifluoromethyl)pyridin-2-yl)pyridine-4-sulfonamide] | 482% | 1.06 µM | 94.2% | 0.0145 µM
Nc1cccc(S(=O)(=O)Nc2ccc(C(F)(F)F)c(-c3ccccc3C3CC3)n2)n1 [Example 28] | 429% | 1.38 µM | 77.1% | 0.0016 µM
Cc1c(-c2nc(NS(=O)(=O)c3cccc(N)n3)ccc2Cl)cccc1C(F)(F)F [Example 34, 6-amino-N-(5-chloro-6-(2-methyl-3-(trifluoromethyl)phenyl)pyridin-2-yl)pyridine-2-sulfonamide] | 400% | 2.52 µM | 58.2% | 0.0116 µM
Cc1ccccc1-c1nc(NS(=O)(=O)c2ccc(C)c(N)n2)ccc1C(F)(F)F [Example 36, 6-amino-5-methyl-N-(6-(o-tolyl)-5-(trifluoromethyl)pyridin-2-yl)pyridine-2-sulfonamide] | 390% | 2.1 µM | 67.6% | 0.0259 µM
Nc1cccc(S(=O)(=O)Nc2ccc(C(F)(F)F)c(-c3ccc(F)cc3Cl)n2)n1 [Example 41, 6-amino-N-(6-(2-chloro-4-fluorophenyl)-5-(trifluoromethyl)pyridin-2-yl)pyridine-2-sulfonamide] | 368% | 2.34 µM | 88.8% | 0.0139 µM
